Paper PMC4929166, “Pharmacological evaluation of synthetic cannabinoids identified as constituents of spice” (Forensic Toxicology, 2016)
Read-outs that look alike come from different tables or passages of the source.

Key:
human GPR18 [1] = target: T1, human GPR18 (Homo sapiens, UniProt Q14330); set-up: method as in PMID 22916707; conditions: read-out: Human GPR18 IC50; ref [47]; cited from earlier work
T1 construct: β-galactosidase enzyme fragment (PathHunter complementation tag)
T1 sequence (Q14330 1-331): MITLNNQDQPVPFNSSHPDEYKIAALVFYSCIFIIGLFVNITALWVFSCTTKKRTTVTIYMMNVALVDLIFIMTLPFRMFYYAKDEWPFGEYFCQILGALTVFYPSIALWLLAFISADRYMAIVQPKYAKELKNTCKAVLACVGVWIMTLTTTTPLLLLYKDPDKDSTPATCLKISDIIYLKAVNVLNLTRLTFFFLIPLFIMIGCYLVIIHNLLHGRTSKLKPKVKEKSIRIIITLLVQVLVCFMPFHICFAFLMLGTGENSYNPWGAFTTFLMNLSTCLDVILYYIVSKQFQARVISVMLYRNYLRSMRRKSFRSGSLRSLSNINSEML

human GPR55 [2] = target: T2, human GPR55 (Homo sapiens, UniProt Q9Y2T6); conditions: read-out: Human GPR55 IC50; ref [48]; cited from earlier work
T2 construct: β-galactosidase enzyme fragment (PathHunter complementation tag)

CB1 = conditions: Fig. 1, standard agonists; ref [14]; cited from earlier work
CB2 = conditions: Fig. 1, standard agonists; ref [14]; cited from earlier work
Human CB2 [3] = conditions: cited from earlier work; for Ki: read-out: Ki Human CB2 (literature) (converted)
Human CB1 [4] = conditions: cited from earlier work; for Ki: read-out: Ki Human CB1 (literature) (converted)
CB1 receptor [5] = target: T3, CB1 receptor (Homo sapiens, UniProt P21554); test: biochemical; format: binding; set-up: expressed in transfected cells; host or cells: CHO cells (membrane preparation); conditions: for CB1 selectivity Ki CB2/KiCB1: Table S1, selectivity index from Ki values
human GPR18 [6] = target: T1, human GPR18; test: β-Arrestin recruitment assay (PathHunter) at GPR18; format: cell-based; conditions: for Human GPR18 % activation: percent in brackets beside EC50 >10 µM; for Human GPR18 % inhibition: percent in brackets beside IC50
Procedure: (§1) Recruitment of β-arrestin to the respective receptor was detected by using β-galactosidase enzyme fragment complementation technology (β-arrestin PathHunter™ assay, DiscoverX, Fremont, CA, USA) as previously described. Data were obtained from three independent experiments, performed in duplicates. Data were analyzed using Graph Pad Prism Version 4.02 (San Diego, CA, USA).

CB2 receptor [7] = target: T4, CB2 receptor (Homo sapiens, UniProt P34972); test: biochemical; format: binding; set-up: expressed in transfected cells; host or cells: CHO cells (membrane preparation)
human GPR55 [8] = target: T2, human GPR55; test: β-Arrestin recruitment assay (PathHunter) at GPR55; format: cell-based; conditions: for Human GPR55 % activation: percent in brackets beside EC50 >10 µM; for Human GPR55 % inhibition: percent in brackets beside IC50
Procedure: as §1

Human CB2 [9] = conditions: ref Banister et al. [28]; read-out: EC50 Human CB2 (literature, functional assay) (converted); cited from earlier work
CB2 receptor [10] = target: T4, CB2 receptor; test: cAMP accumulation assay in CHO cells expressing CB2; format: cell-based; set-up: expressed in transfected cells; host or cells: CHO cells; conditions: for efficacy at CB2 receptor (in words): cAMP accumulation, forskolin 10 µM, test concentration 1 µM or 10 µM, normalized to CP55,940
Human CB1 [11] = conditions: ref Banister et al. [28]; read-out: EC50 Human CB1 (literature, functional assay) (converted); cited from earlier work
CB1 receptor [12] = target: T3, CB1 receptor; test: cell-based; format: cell-based; set-up: expressed in transfected cells; host or cells: CHO cells
[13] = versus 0.1 nM [3H]CP55,940, CHO cell membranes, mean ± SEM of three to five experiments, read-out: Ki ± SEM Human CB1
[14] = versus 0.1 nM [3H]CP55,940, CHO cell membranes, mean ± SEM of three to five experiments, read-out: Ki ± SEM Human CB2
[15] = Human GPR55 IC50, β-arrestin assay, antagonist mode
[16] = cAMP accumulation, forskolin 10 µM, test concentration 1 µM or 10 µM, normalized to CP55,940
[17] = Table S1, selectivity index from Ki values

T2 sequence (Q9Y2T6 whole entry, the tested form may be a part): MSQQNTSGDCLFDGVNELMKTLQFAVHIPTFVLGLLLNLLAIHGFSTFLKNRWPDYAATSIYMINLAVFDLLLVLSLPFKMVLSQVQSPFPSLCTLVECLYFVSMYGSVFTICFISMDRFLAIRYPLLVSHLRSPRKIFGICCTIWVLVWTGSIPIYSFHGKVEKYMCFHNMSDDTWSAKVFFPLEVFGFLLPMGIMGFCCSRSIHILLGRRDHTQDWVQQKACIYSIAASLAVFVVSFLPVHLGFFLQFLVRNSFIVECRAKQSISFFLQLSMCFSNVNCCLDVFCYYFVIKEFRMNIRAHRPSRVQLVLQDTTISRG
T4 sequence (P34972 whole entry): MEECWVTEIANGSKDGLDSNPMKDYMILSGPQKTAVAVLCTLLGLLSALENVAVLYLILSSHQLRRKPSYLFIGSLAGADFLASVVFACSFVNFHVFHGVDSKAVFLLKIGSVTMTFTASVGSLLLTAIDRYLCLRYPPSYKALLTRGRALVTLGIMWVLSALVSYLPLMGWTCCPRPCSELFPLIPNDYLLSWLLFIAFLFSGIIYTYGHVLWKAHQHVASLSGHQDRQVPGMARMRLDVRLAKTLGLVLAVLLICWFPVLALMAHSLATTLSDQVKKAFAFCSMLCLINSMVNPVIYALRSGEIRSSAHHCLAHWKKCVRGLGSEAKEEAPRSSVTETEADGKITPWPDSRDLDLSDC
T3 sequence (P21554 whole entry): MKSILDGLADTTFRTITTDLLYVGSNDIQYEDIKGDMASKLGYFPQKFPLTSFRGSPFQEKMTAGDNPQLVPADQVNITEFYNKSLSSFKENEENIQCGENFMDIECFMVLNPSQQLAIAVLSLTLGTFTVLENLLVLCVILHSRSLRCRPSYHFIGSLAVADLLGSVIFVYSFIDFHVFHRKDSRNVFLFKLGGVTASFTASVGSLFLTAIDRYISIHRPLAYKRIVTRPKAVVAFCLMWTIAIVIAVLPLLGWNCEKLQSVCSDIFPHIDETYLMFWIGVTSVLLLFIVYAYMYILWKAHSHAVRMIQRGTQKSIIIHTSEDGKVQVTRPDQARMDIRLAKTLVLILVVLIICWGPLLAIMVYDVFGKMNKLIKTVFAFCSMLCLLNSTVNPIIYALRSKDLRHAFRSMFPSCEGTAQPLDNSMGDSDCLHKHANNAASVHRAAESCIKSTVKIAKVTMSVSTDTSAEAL

SMILES: CCCCCCC(C)(C)c1ccc([C@@H]2CC(O)CC[C@H]2CCCO)c(O)c1 (single isomer, unassigned; (-)) [Compound 2, (−)-cis-3-[2-hydroxy-4-(1,1-dimethylheptyl)phenyl]-trans-4-(3-hydroxypropyl)cyclohexanol]
- IC50 (human GPR18 [1]): 5990 nM
- IC50 (human GPR55 [2]): 1610 nM

SMILES: CCCCCn1cc(C(=O)c2cccc3ccccc23)c2ccccc21 [Compound 3, JWH-018]
- Ki (CB1): 9 nM
- Ki (CB2): 2.9 nM

SMILES: CCCCCn1cc(C(=O)Nc2cccc3ccccc23)c2ccccc21 [Compound 4, NNEI]
- Ki (Human CB2 [3]; ref Blaazer et al. [33]): 100 nM
- pKi value at the CB1 receptor (Human CB1 [4]; ref Blaazer et al. [33]): 8.9
- Ki (Human CB1 [4]; ref Blaazer et al. [33]): 1.25 nM
- CB1 selectivity Ki CB2/KiCB1 (CB1 receptor [5]): 12.0
- Ki (CB1 receptor [5]; [13]): 1.82 ± 0.35 nM
- EC50 (human GPR18 [6]): > 10000 nM
- IC50 (human GPR18 [6]): > 10000 nM
- Human GPR18 % activation (human GPR18 [6]; β-arrestin assay): 42%
- Human GPR18 % inhibition (human GPR18 [6]; β-arrestin assay): −15%
- Ki (CB2 receptor [7]; [14]): 21.9 ± 5.5 nM
- EC50 (human GPR55 [8]): > 10000 nM
- IC50 (human GPR55 [8]; [15]): > 10000 nM
- Human GPR55 % activation (human GPR55 [8]; β-arrestin assay): 26%
- Human GPR55 % inhibition (human GPR55 [8]; β-arrestin assay): 30%

SMILES: CCCCCn1cc(C(=O)Oc2cccc3cccnc23)c2ccccc21 [Compound 24, PB-22]
- EC50 (Human CB2 [9]): 2.8 nM
- efficacy at CB2 receptor (in words) (CB2 receptor [10]): partial agonist with similar efficacy as Δ^9-THC
- CB1 selectivity Ki CB2/KiCB1 (CB1 receptor [5]): 1.4
- Ki (CB1 receptor [5]; [13]): 0.318 ± 0.071 nM
- EC50 (human GPR18 [6]): > 10000 nM
- IC50 (human GPR18 [6]): > 10000 nM
- Human GPR18 % activation (human GPR18 [6]; β-arrestin assay): −18%
- Human GPR18 % inhibition (human GPR18 [6]; β-arrestin assay): 26%
- EC50 (Human CB1 [11]): 5.1 nM
- Ki (CB2 receptor [7]; [14]): 0.433 ± 0.106 nM
- efficacy at CB1 receptor (in words) (CB1 receptor [12]; [16]): partial agonist with similar efficacy as Δ^9-THC
- EC50 (human GPR55 [8]): > 10000 nM
- IC50 (human GPR55 [8]; [15]): > 10000 nM
- Human GPR55 % activation (human GPR55 [8]; β-arrestin assay): 15%
- Human GPR55 % inhibition (human GPR55 [8]; β-arrestin assay): -12%

SMILES: CCCCCn1cc(C(=O)C2C(C)(C)C2(C)C)c2ccccc21 [Compound 37, UR-144]
- Ki (Human CB2 [3]; ref Frost et al. [40]): 1.8 nM
- Ki (Human CB1 [4]; ref Frost et al. [40]): 150 nM
- Ki (CB1 receptor [5]; [13]): 55.9 ± 6.5 nM
- EC50 (human GPR18 [6]): > 10000 nM
- IC50 (human GPR18 [6]): > 10000 nM
- Human GPR18 % activation (human GPR18 [6]; β-arrestin assay): 17%
- Human GPR18 % inhibition (human GPR18 [6]; β-arrestin assay): 14%
- CB2 selectivity Ki CB1/KiCB2 (CB2 receptor [7]; [17]): 37.5
- Ki (CB2 receptor [7]; [14]): 1.49 ± 0.25 nM
- EC50 (human GPR55 [8]): > 10000 nM
- IC50 (human GPR55 [8]; [15]): 6700 ± 1650 nM
- Human GPR55 % activation (human GPR55 [8]; β-arrestin assay): −5%

SMILES: CC1(C)C(C(=O)c2cn(CCCC(F)(F)F)c3ccccc23)C1(C)C [Compound 41, XLR-12]
- Ki (Human CB2 [3]; ref Frost et al. [40]): 0.09 nM
- CB2-selectivity previously reported (Human CB2 [3]; ref [40]): 167 fold
- Ki (Human CB1 [4]; ref Frost et al. [40]): 15 nM
- EC50 (CB2 receptor [10]): 0.391 nM
- CB2-selectivity in functional assay (EC50 CB1 vs CB2) (CB2 receptor [10]; cAMP accumulation EC50 values): 30 fold
- efficacy at CB2 receptor (in words) (CB2 receptor [10]): lower efficacy than Δ^9-THC
- Ki (CB1 receptor [5]; [13]): 43.7 ± 5.9 nM
- EC50 (human GPR18 [6]): > 10000 nM
- IC50 (human GPR18 [6]): > 10000 nM
- Human GPR18 % activation (human GPR18 [6]; β-arrestin assay): 27%
- Human GPR18 % inhibition (human GPR18 [6]; β-arrestin assay): 13%
- CB2 selectivity Ki CB1/KiCB2 (CB2 receptor [7]; [17]): 52.6
- Ki (CB2 receptor [7]; [14]): 0.831 ± 0.331 nM
- efficacy at CB1 receptor (in words) (CB1 receptor [12]; [16]): lower efficacy than Δ^9-THC
- EC50 (CB1 receptor [12]; full concentration response curve, read-out: CB1: EC50, inhibition of cAMP accumulation): 11.7 ± 6.5 nM
- EC50 (human GPR55 [8]): > 10000 nM
- IC50 (human GPR55 [8]; [15]): 4560 ± 1970 nM
- Human GPR55 % activation (human GPR55 [8]; β-arrestin assay): −5%

SMILES: CN1CCCCC1Cn1cc(C(=O)C2C(C)(C)C2(C)C)c2ccccc21 (stereo not shown) [Compound 43, AB005]
- Ki (Human CB2 [3]; ref Frost et al. [40]): 0.48 nM
- Ki (Human CB1 [4]; ref Frost et al. [40]): 5.5 nM
- efficacy at CB2 receptor (in words) (CB2 receptor [10]): lower efficacy than Δ^9-THC
- Ki (CB1 receptor [5]): 59.4 nM
- EC50 (human GPR18 [6]): > 10000 nM
- IC50 (human GPR18 [6]): > 10000 nM
- Human GPR18 % activation (human GPR18 [6]; β-arrestin assay): −38%
- Human GPR18 % inhibition (human GPR18 [6]; β-arrestin assay): −2%
- CB2 selectivity Ki CB1/KiCB2 (CB2 receptor [7]): 57.1
- Ki (CB2 receptor [7]): 1.04 nM
- efficacy at CB1 receptor (in words) (CB1 receptor [12]): lower efficacy than Δ^9-THC
- EC50 (human GPR55 [8]): > 10000 nM
- IC50 (human GPR55 [8]; [15]): > 10000 nM
- Human GPR55 % activation (human GPR55 [8]; β-arrestin assay): 16%
- Human GPR55 % inhibition (human GPR55 [8]; β-arrestin assay): 39%

SMILES: CC1(C)C(C(=O)c2cn(CCN3CCOCC3)c3ccccc23)C1(C)C [Compound 45, A-796,260]
- Ki (Human CB2 [3]; ref Frost et al.[29]): 4.4 nM
- EC50 (human GPR18 [6]): > 10000 nM
- IC50 (human GPR18 [6]): > 10000 nM
- Human GPR18 % activation (human GPR18 [6]; β-arrestin assay): 20%
- Human GPR18 % inhibition (human GPR18 [6]; β-arrestin assay): −10%
- Ki (CB2 receptor [7]; [14]): 8.02 ± 0.77 nM
- EC50 (human GPR55 [8]): > 10000 nM
- Human GPR55 % activation (human GPR55 [8]; β-arrestin assay): −1%

SMILES: CC1(C)C(C(=O)c2cn(CC3CCOCC3)c3ccccc23)C1(C)C [Compound 46, A-834,735]
- Ki (Human CB2 [3]; ref Frost et al.[29]): 0.21 nM
- EC50 (human GPR18 [6]): > 10000 nM
- IC50 (human GPR18 [6]): > 10000 nM
- Human GPR18 % activation (human GPR18 [6]; β-arrestin assay): 6%
- Human GPR18 % inhibition (human GPR18 [6]; β-arrestin assay): 6%
- Ki (CB2 receptor [7]; [14]): 0.566 ± 0.153 nM
- EC50 (human GPR55 [8]): > 10000 nM
- IC50 (human GPR55 [8]; Human GPR55 IC50 (extrapolated), Extrapolated values, a full curve could not be determined due to limited solubility): 6880 ± 1510 nM
- Human GPR55 % activation (human GPR55 [8]; β-arrestin assay): 8%

SMILES: COc1cccc2c(C(=O)C3C4(C)CCC(C4)C3(C)C)c(C)n(CCN3CCOCC3)c12 (stereo not shown) [Compound 48, MN-25]
- Ki (Human CB2 [3]; ref Wroblenski et al.[39]): 11 nM
- Ki (Human CB1 [4]; ref Wroblenski et al.[39]): 245 nM
- Ki (CB1 receptor [5]; [13]): 780 ± 66 nM
- EC50 (human GPR18 [6]; read-out: Human GPR18 EC50, β-arrestin assay, agonist mode): > 10000 nM
- IC50 (human GPR18 [6]; read-out: Human GPR18 IC50, β-arrestin assay, antagonist mode): > 10000 nM
- Human GPR18 % activation (human GPR18 [6]; β-arrestin assay): −12%
- Human GPR18 % inhibition (human GPR18 [6]; β-arrestin assay): 30%
- CB2 selectivity Ki CB1/KiCB2 (CB2 receptor [7]; [17]): 282
- Ki (CB2 receptor [7]; [14]): 2.77 ± 1.59 nM
- EC50 (human GPR55 [8]; read-out: Human GPR55 EC50, β-arrestin assay, agonist mode): > 10000 nM
- IC50 (human GPR55 [8]; read-out: Human GPR55 IC50, β-arrestin assay, antagonist mode): > 10000 nM
- Human GPR55 % activation (human GPR55 [8]; β-arrestin assay): −8%
- Human GPR55 % inhibition (human GPR55 [8]; β-arrestin assay): 47%

SMILES: CCCCCn1cc(C(=O)Nc2ccc3ccccc3c2)c2ccccc21 [non-fluorinated derivative of compound 7, reference compound]
- pKi value at the CB1 receptor (Human CB1 [4]; ref Blaazer et al. [33]): 7.2
